We go through 33 compounds from patent US20180273531A1, “PYRIMIDINE COMPOUND AND MEDICAL USE THEREOF” (Japan Tobacco Inc., priority 2004, published 2018).

What all share (assay type): cell-based
In one assay the test system is p15 protein. In words: Evaluation of p15 induction activity (Western blotting). Particulars: test substance 0.1 μM, 24 hrs, ACHN cells or HT-29 cells, compared to DMSO, n=2. The method, boiled down: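 p15 protein quantified by densitometry of anti-p15 Western blots (10 μg protein per lane, mean of n=2). Samples came from HT-29 or ACHN cells given 0.1 μM compound for 24 h after 24 h plating, with DMSO as control.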
On the technique in general: In western blotting, separated proteins are transferred to a membrane and probed.

Assay [1] relates to ACHN cells or HT-29 cells. Description: Cell cycle analysis (flow cytometry, CycleTEST PLUS). The following applies: test substance less than 10 μM, 24 hrs, compared to DMSO, n=2, read-out: CELL RATIO OF G0/G1 PHASE. As for the experimental part:
ACHN cells or HT-29 cells were cultured in a 6 well plate at 2.5×10^5 cells/1.8 mL/well for 24 hrs, then a test substance (less than 10 μM) dissolved in DMSO was added. After 24 hrs, cells were detached using trypsin-EDTA and the DNA content of single cell was analyzed by flow cytometry method using a CycleTEST PLUS (BECKTON DICKINSON) kit, and the proportion of the cells in the G0/G1 phase·S phase·G2/M phase was calculated. As a control, DMSO was used and the test was performed with n=2.
(In flow cytometry, cells or beads pass a laser one at a time.)

Assay [2] deals with colorectal cancer cell line HT-29 cells. In words: Growth inhibitory effect against cancer cell lines (3H-thymidine uptake), HT-29. The following applies: Homo sapiens, HT-29, inhibition of 3H-thymidine uptake; test substance 18 hrs, then 3H-thymidine 6 hrs; triplicate. The method, boiled down: (§1)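 IC50 = concentration reducing ^3H-thymidine incorporation to 50% of DMSO control, measured in triplicate. Compound added 24 hrs after plating (1.0×10^4 cells/well); label (0.25 μCi/well) given after 18 hrs of treatment, followed by 6 hrs further culture and scintillation counting of harvested cells.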

The test system of assay [3] is Renal cancer cell line ACHN cell. In words: Growth inhibitory effect against cancer cell lines (3H-thymidine uptake), ACHN. Particulars: Homo sapiens, ACHN. The gist of the method:
as §1

The next assay concerns p27 protein. In words: p27 protein induction test (Western blotting). The following applies: test substance (0.1 1M), 24 hrs, ACHN cells or HT-29 cells, compared to DMSO, n=2. The gist of the method: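 p27 level taken as anti-p27 band density by densitometry, mean of n=2, with DMSO as control. Samples loaded at amount equivalent to 10 μg BSA. Cells were ACHN or HT-29, exposed 24 h to […] test substance after 24 h pre-culture.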

In the assay with p15 protein, `Cn1c(=O)cc(Nc2ccc(Cl)cc2)c2c(=O)n(-c3ccsc3)c(=O)n(-c3ccsc3)c21` [Example 1-77] gave a fold induction at 0.1 µM of no less than 1.5. Further, the fold induction in assay [1] was no less than 1.2.

With `CCc1ccc(Nc2cc(=O)n(C)c3c2c(=O)n(-c2ccccc2)c(=O)n3-c2ccccc2)cc1` [Example 1-21], the fold induction in assay [1] was no less than 1.2.

The compound `CCc1ccccc1Nc1cc(=O)n(C)c2c1c(=O)n(-c1ccccc1)c(=O)n2-c1ccccc1` [Example 1-38] displayed a fold induction at 0.1 µM in the assay on p15 protein of no less than 1.5. For the same compound, the fold induction in assay [1] is no less than 1.2.

As for `Cn1c(=O)cc(Nc2ccccc2Cl)c2c(=O)n(-c3ccccc3)c(=O)n(-c3ccccc3)c21` [Example 1-4], the fold induction at 0.1 µM in the assay with p15 protein was no less than 1.5. Also, the fold induction in assay [1] is no less than 1.2.

`CCc1ccccc1-n1c(=O)n(C2CC2)c(=O)c2c(Nc3ccc(Cl)cc3)cc(=O)n(C)c21` [Example 1-103] returned a fold induction at 0.1 µM with p15 protein of no less than 1.5. In addition, the fold induction in assay [1] was no less than 1.2.

In turn, `Cn1c(=O)cc(Nc2ccc(Cl)cc2)c2c(=O)n(C3CC3)c(=O)n(-c3ccccc3)c21` [Example 1-84] came in with a fold induction at 0.1 µM in the assay with p15 protein of no less than 1.5. For the same compound, the fold induction in assay [1] was no less than 1.2.

Turning to `Cc1ccccc1-n1c(=O)n(C)c(=O)c2c(Nc3ccc(Cl)cc3)cc(=O)n(C)c21` [Example 1-85], the fold induction at 0.1 µM in the assay on p15 protein is no less than 1.5. Further, the fold induction in assay [1] is no less than 1.2.

Turning to `Cc1ccc(Nc2cc(=O)n(C)c3c2c(=O)n(-c2ccccc2)c(=O)n3-c2ccccc2)cc1` [Example 1-6], in the assay on p15 protein, the fold induction at 0.1 µM was no less than 1.5. The fold induction in assay [1] is no less than 1.2.

On to `Cn1c(=O)cc(Nc2ccc(Cl)cc2Cl)c2c(=O)n(-c3ccccc3)c(=O)n(-c3ccccc3)c21` [Example 1-26], for which the fold induction at 0.1 µM in the assay on p15 protein is no less than 1.5. Further, the fold induction in assay [1] was no less than 1.2.

In the assay on p15 protein, `COc1ccc(Nc2cc(=O)n(C)c3c2c(=O)n(-c2ccccc2)c(=O)n3-c2ccccc2)cc1` [Example 1-9] had a fold induction at 0.1 µM of no less than 1.5. Further, in assay [1], the fold induction was no less than 1.2.

Compound `COc1ccccc1-n1c(=O)n(C2CC2)c(=O)c2c(Nc3ccc(Cl)cc3)cc(=O)n(C)c21` [Example 1-104] returned a fold induction at 0.1 µM in the assay on p15 protein of no less than 1.5. The fold induction in assay [1] was no less than 1.2.

The compound `CCn1c(=O)c2c(Nc3ccc(Cl)cc3)cc(=O)n(C)c2n(-c2ccc(Cl)cc2)c1=O` [Example 1-94] gave a fold induction at 0.1 µM in the assay with p15 protein of no less than 1.5. In assay [1], the fold induction at up to 10 µM was no less than 1.2.

For `CCCCc1ccccc1Nc1cc(=O)n(C)c2c1c(=O)n(-c1ccccc1)c(=O)n2-c1ccccc1` [Example 1-51], the fold induction at 0.1 µM with p15 protein is no less than 1.5. For the same compound, the fold induction in assay [1] is no less than 1.2.

In the assay with p15 protein, `Cc1c(Nc2ccc(Cl)cc2)c2c(=O)n(-c3ccccc3)c(=O)n(-c3ccccc3)c2n(C)c1=O` [Example 1-43] displayed a fold induction at 0.1 µM of no less than 1.5. Moreover, in assay [1], the fold induction was no less than 1.2.

`Cc1ccccc1-n1c(=O)n(C2CC2)c(=O)c2c(Nc3ccc(Cl)cc3)cc(=O)n(C)c21` [Example 1-102] showed a fold induction at 0.1 µM with p15 protein of no less than 1.5. For the same compound, the fold induction in assay [1] was no less than 1.2.

As for `CCCc1c(Nc2ccc(Cl)cc2)c2c(=O)n(-c3ccccc3)c(=O)n(-c3ccccc3)c2n(C)c1=O` [Example 1-91], the fold induction in assay [1] was no less than 1.2.

In the case of `Cn1c(=O)cc(Nc2ccc(C(F)(F)F)cc2)c2c(=O)n(-c3ccccc3)c(=O)n(-c3ccccc3)c21` [Example 1-33], the fold induction at 0.1 µM in the assay with p15 protein was no less than 1.5. For the same compound, the fold induction in assay [1] is no less than 1.2.

`CNc1ccc(Nc2cc(=O)n(C)c3c2c(=O)n(-c2ccccc2)c(=O)n3-c2ccccc2)cc1` [Example 1-49] came in with a fold induction at 0.1 µM with p15 protein of no less than 1.5. Besides, in assay [1], the fold induction is no less than 1.2.

In the assay with p15 protein, `Cc1ccc(Nc2cc(=O)n(C)c3c2c(=O)n(-c2ccccc2)c(=O)n3-c2ccccc2)c(Cl)c1` [Example 1-34] registered a fold induction at 0.1 µM of no less than 1.5. Moreover, the fold induction in assay [1] was no less than 1.2.

For the compound `CC(C)c1ccc(Nc2cc(=O)n(C)c3c2c(=O)n(-c2ccccc2)c(=O)n3-c2ccccc2)cc1` [Example 1-25], the fold induction in assay [1] was no less than 1.2.

As usually defined, the IC50 is the concentration that gives 50% inhibition. A high value points to lower potency. `Cn1c(=O)cc(Nc2ccc(Cl)cc2)c2c(=O)n(-c3ccccc3)c(=O)n(-c3ccccc3)c21` [Example 1-2] yielded a half-maximal inhibitory concentration (IC50) in assay [2] of 0.1 to 1 µM. Also, in assay [1], the fold induction is no less than 1.2.

`Cn1c(=O)cc(Nc2ccc(Cl)cc2)c2c(=O)n(CC(F)(F)F)c(=O)n(-c3ccccc3)c21` [Example 1-90]: in assay [1], the fold induction is no less than 1.2.

Turning to `Cn1c(=O)cc(Nc2ccc(Cl)cc2)c2c(=O)n(C3CC3)c(=O)n(-c3ccccc3C(F)(F)F)c21` [Example 1-101], in assay [1], the fold induction was no less than 1.2.

As for `CCS(=O)(=O)Nc1ccc(-n2c(=O)n(C3CC3)c(=O)c3c(Nc4ccc(I)cc4F)n(C)c(=O)c(C)c32)cc1` [Example 4-77], the concentration for half-maximal inhibition (IC50) is 0.01 to 0.1 µM in assay [3] and less than 0.01 µM in assay [2]. For the same compound, the fold induction at 0.1 µM in the assay with p15 protein and with p27 protein was no less than 1.5 throughout.

Turning to `C#Cc1ccc(Nc2c3c(=O)n(C)c(=O)n(-c4cccc(NC(C)=O)c4)c3c(C)c(=O)n2C)c(F)c1` [Example 4-48], the half-inhibitory concentration (IC50) was 0.01 to 0.1 µM in assay [3] and less than 0.01 µM in assay [2]. For the same compound, the fold induction at 0.1 µM in the assay with p15 protein and in the assay on p27 protein was no less than 1.5 in each case.

With `C#Cc1ccc(Nc2c3c(=O)n(C4CC4)c(=O)n(-c4cccc(NS(=O)(=O)CC)c4)c3c(C)c(=O)n2C)c(F)c1` [Example 4-6], the figures for the half-maximal inhibitory concentration (IC50) in assay [3] and in assay [2] were 0.01 to 0.1 µM and less than 0.01 µM, respectively. Further, the fold induction at 0.1 µM with p15 protein and in the assay on p27 protein was no less than 1.5 throughout.

For `CNc1cccc(-n2c(=O)n(C3CC3)c(=O)c3c(Nc4ccc(Br)cc4F)cc(=O)n(C)c32)c1` [Example 1-283], the IC50 is 0.1 to 1 µM in assay [3] and 0.01 to 0.1 µM in assay [2]. Further, the fold induction at 0.1 µM with p15 protein and in the assay on p27 protein was no less than 1.5 throughout.

For the compound `Cc1c(=O)n(C)c(Nc2ccc(I)cc2F)c2c(=O)n(C)c(=O)n(-c3ccc(S(N)(=O)=O)cc3)c12` [Example 4-119], the IC50 in assay [3] is 0.01 to 0.1 µM; in assay [2], less than 0.01 µM. Further, the fold induction at 0.1 µM in the assay with p15 protein and with p27 protein was no less than 1.5 in each case.

In the case of `Cc1c(=O)n(C)c(Nc2ccc(I)cc2F)c2c(=O)n(C3CC3)c(=O)n(-c3cccc(N4CC(=O)NC4=O)c3)c12` [Example 4-109], the half-maximal inhibitory concentration (IC50) was 0.01 to 0.1 µM in assay [3] and less than 0.01 µM in assay [2]. Also, the fold induction at 0.1 µM with p15 protein and in the assay with p27 protein was no less than 1.5 each time.

Take `CCc1ccc(Nc2c3c(=O)n(C4CC4)c(=O)n(-c4ccc(NS(C)(=O)=O)cc4)c3c(C)c(=O)n2C)c(F)c1` [Example 4-78]: the figures for the IC50 in assay [3] and in assay [2] were 0.1 to 1 µM and 0.01 to 0.1 µM, respectively. Further, the fold induction at 0.1 µM in the assay with p15 protein and in the assay on p27 protein was no less than 1.5 in each case.

As to `CON(C)C(=O)Nc1cccc(-n2c(=O)n(C3CC3)c(=O)c3c(Nc4ccc(I)cc4F)n(C)c(=O)c(C)c32)c1` [Example 4-80], the IC50 was 0.01 to 0.1 µM in assay [3] and less than 0.01 µM in assay [2]. Moreover, the fold induction at 0.1 µM in the assay with p15 protein and in the assay on p27 protein was no less than 1.5 each time.

As for `CCCc1ccccc1Nc1cc(=O)n(C)c2c1c(=O)n(-c1ccccc1)c(=O)n2-c1ccccc1` [Example 1-50], the fold induction in assay [1] is no less than 1.2.

As for `C#Cc1ccc(Nc2cc(=O)n(C)c3c2c(=O)n(C2CC2)c(=O)n3-c2cccc(NS(C)(=O)=O)c2)cc1` [Example 1-290], the IC50 in assay [3] was 0.01 to 0.1 µM; in assay [2], less than 0.01 µM. For the same compound, the fold induction at 0.1 µM in the assay on p15 protein and in the assay with p27 protein was no less than 1.5 each time.
